Measurements from PubChem BioAssay AID248 (DTP/NCI, 2004).
“And” between values parts separate entries of the source, which are not always exact repeats. Equal entries are not always repeated. Toxic doses and inconclusive results are not listed. Rule as the data show it: active = T/C of 150% or more; inactive = T/C below 125%.

System: L1210 leukemia ip in BDF1 mice, survival T/C
Test: NCI In Vivo Anticancer Drug Screen. Data for tumor model L1210 Leukemia (intraperitoneal) in B6D2F1 (BDF1) mice
Conditions: endpoint: mean survival time, higher = longer survival
How it was run: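 Value reflects the ratio of survival in compound-treated mice to survival in vehicle-treated controls, with both groups carrying the same transplanted tumor.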

[1] = dose: 12.5 mg/kg/injection, schedule: Q01DX009 (ip), vehicle: saline with Tween-80
[2] = dose: 100.0 mg/kg/injection, schedule: Q01DX001 (ip), vehicle: saline
[3] = dose: 200.0 mg/kg/injection, schedule: Q01DX001 (ip), vehicle: saline
[4] = dose: 100.0 mg/kg/injection, schedule: Q04DX002 (ip), vehicle: Klucel (hydroxypropylcellulose) (HPC)
[5] = dose: 200.0 mg/kg/injection, schedule: Q04DX002 (ip), vehicle: Klucel (hydroxypropylcellulose) (HPC)
[6] = dose: 400.0 mg/kg/injection, schedule: Q04DX002 (ip), vehicle: Klucel (hydroxypropylcellulose) (HPC)

Measured: T/C

CCOCc1cc([N+](=O)[O-])cc([N+](=O)[O-])c1O
inactive: dose: 5.56 mg/kg/injection, schedule: Q01DX009 (ip), vehicle: saline with Tween-80 90 % of control | dose: 8.33 mg/kg/injection, schedule: Q01DX009 (ip), vehicle: saline with Tween-80 108 % of control | [1] 95 % of control | dose: 18.7 mg/kg/injection, schedule: Q01DX009 (ip), vehicle: saline with Tween-80 104 % of control | dose: 25.0 mg/kg/injection, schedule: Q01DX009 (ip), vehicle: saline with Tween-80 103 % of control | dose: 50.0 mg/kg/injection, schedule: Q01DX009 (ip), vehicle: saline with Tween-80 93 % of control

N#CC(C#N)c1ccc(C(C#N)C#N)cc1
inactive: dose: 50.0 mg/kg/injection, schedule: Q01DX001 (ip), vehicle: saline 103 % of control | [2] 122 % of control | [3] 103 % of control

O=C/C=C/c1cc(Cl)ccc1O
inactive: [2] 108 % of control | [3] 103 % of control

CCCC(=O)OC(=O)N/C=C/NC(=O)OC(=O)CCC
inactive: dose: 100.0 mg/kg/injection, schedule: Q01DX001 (ip), vehicle: alcohol 103 % of control | dose: 200.0 mg/kg/injection, schedule: Q01DX001 (ip), vehicle: alcohol 103 % of control | dose: 400.0 mg/kg/injection, schedule: Q01DX001 (ip), vehicle: alcohol 94 % of control

O=NN(CCCCl)C(=O)Nc1ccc(NC(=O)N(CCCCl)N=O)cc1
inactive: dose: 12.5 mg/kg/injection, schedule: Q01DX001 (ip), vehicle: carboxymethylcellulose (CMC) 111 % of control | dose: 25.0 mg/kg/injection, schedule: Q01DX001 (ip), vehicle: carboxymethylcellulose (CMC) 109 % of control | dose: 50.0 mg/kg/injection, schedule: Q01DX001 (ip), vehicle: carboxymethylcellulose (CMC) 106 % of control | dose: 100.0 mg/kg/injection, schedule: Q01DX001 (ip), vehicle: carboxymethylcellulose (CMC) 117 % of control | dose: 200.0 mg/kg/injection, schedule: Q01DX001 (ip), vehicle: carboxymethylcellulose (CMC) 111 % of control | dose: 300.0 mg/kg/injection, schedule: Q01DX001 (ip), vehicle: carboxymethylcellulose (CMC) 111 % of control | dose: 400.0 mg/kg/injection, schedule: Q01DX001 (ip), vehicle: carboxymethylcellulose (CMC) 106 % of control | dose: 500.0 mg/kg/injection, schedule: Q01DX001 (ip), vehicle: carboxymethylcellulose (CMC) 106 % of control | dose: 600.0 mg/kg/injection, schedule: Q01DX001 (ip), vehicle: carboxymethylcellulose (CMC) 109 % of control | dose: 800.0 mg/kg/injection, schedule: Q01DX001 (ip), vehicle: carboxymethylcellulose (CMC) 112 % of control | dose: 1000.0 mg/kg/injection, schedule: Q01DX001 (ip), vehicle: carboxymethylcellulose (CMC) 114 % of control

O=S(=O)(c1ccccc1)C(CCCC(C(O)(c1ccccc1)c1ccccc1)S(=O)(=O)c1ccccc1)C(O)(c1ccccc1)c1ccccc1 (stereo not given)
inactive: dose: 100.0 mg/kg/injection, schedule: Q04DX003 (ip), vehicle: saline with Tween-80 98 % of control | dose: 200.0 mg/kg/injection, schedule: Q04DX003 (ip), vehicle: saline with Tween-80 100 % of control | dose: 400.0 mg/kg/injection, schedule: Q04DX003 (ip), vehicle: saline with Tween-80 105 % of control

CC1(C)CC([NH-])CC(C)(C)N1O.CC1(C)CC([NH-])CC(C)(C)N1O.[Cl][Pd][Cl]
inactive: dose: 100.0 mg/kg/injection, schedule: Q04DX003 (ip), vehicle: saline 94 % of control | dose: 200.0 mg/kg/injection, schedule: Q04DX003 (ip), vehicle: saline 105 % of control | dose: 400.0 mg/kg/injection, schedule: Q04DX003 (ip), vehicle: saline 90 % of control

COC(=O)C1C(O)C(C)C(O)C(C)/C=C\C=C(C)C(=O)Nc2c(C)c(OC(C)=O)c3c(c2O)C(=O)C(C)=C2OCOC(=C23)C(C)=CC(C)(O)C(O)C(C)C1O (stereo not given)
inactive: [4] 104 % of control | [5] 101 % of control | [6] 90 % of control

CCC(C)(c1ccc(O)cc1)c1ccc(O)cc1
inactive: dose: 100.0 mg/kg/injection, schedule: Q04DX002 (ip), vehicle: saline 103 % of control | dose: 200.0 mg/kg/injection, schedule: Q04DX002 (ip), vehicle: saline 97 % of control | dose: 400.0 mg/kg/injection, schedule: Q04DX002 (ip), vehicle: saline 103 % of control

Cn1nc(SCc2ccccc2)c(N)nc1=O
inactive: [2] 102 % of control | [3] 100 % of control | dose: 400.0 mg/kg/injection, schedule: Q01DX001 (ip), vehicle: saline 101 % of control

CCC(C)(CC)c1ccc(O)c(C)c1
inactive: dose: 100.0 mg/kg/injection, schedule: Q01DX009 (sc), vehicle: olive oil, sesame oil, peanut oil 104 % of control | dose: 100.0 mg/kg/injection, schedule: Q04DX003 (sc), vehicle: olive oil, sesame oil, peanut oil 104 % of control | dose: 200.0 mg/kg/injection, schedule: Q01DX009 (sc), vehicle: olive oil, sesame oil, peanut oil 112 % of control | dose: 200.0 mg/kg/injection, schedule: Q04DX003 (sc), vehicle: olive oil, sesame oil, peanut oil 106 % of control | dose: 400.0 mg/kg/injection, schedule: Q01DX009 (sc), vehicle: olive oil, sesame oil, peanut oil 101 % of control | dose: 400.0 mg/kg/injection, schedule: Q04DX003 (sc), vehicle: olive oil, sesame oil, peanut oil 108 % of control

Cc1[nH]c(=O)[nH]c(=O)c1/C=C/C(=O)NC(CO)CC(C)C (stereo not given)
inactive: dose: 12.5 mg/kg/injection, schedule: Q01DX009 (ip), vehicle: saline 98 % of control | dose: 25.0 mg/kg/injection, schedule: Q01DX009 (ip), vehicle: saline 102 % of control and 114 % of control | dose: 50.0 mg/kg/injection, schedule: Q01DX009 (ip), vehicle: saline 98 % of control | dose: 100.0 mg/kg/injection, schedule: Q01DX009 (ip), vehicle: saline 107 % of control and 108 % of control | dose: 200.0 mg/kg/injection, schedule: Q01DX009 (ip), vehicle: saline 101 % of control | dose: 300.0 mg/kg/injection, schedule: Q01DX009 (ip), vehicle: saline 114 % of control

O=S(=O)(CCCl)c1ccc(Br)cc1
inactive: [4] 101 % of control | [5] 97 % of control | [6] 101 % of control

C[P+](C)(c1ccccc1)c1ccccc1
inactive: dose: 3.12 mg/kg/injection, schedule: Q01DX009 (ip), vehicle: saline with Tween-80 108 % of control | dose: 6.25 mg/kg/injection, schedule: Q01DX009 (ip), vehicle: saline with Tween-80 101 % of control | [1] 97 % of control | dose: 12.5 mg/kg/injection, schedule: Q04DX003 (ip), vehicle: saline with Tween-80 102 % of control

O=C(OCCCOC(=O)c1cccc([N+](=O)[O-])c1)c1cccc([N+](=O)[O-])c1
inactive: dose: 100.0 mg/kg/injection, schedule: Q01DX001 (ip), vehicle: other 101 % of control | dose: 200.0 mg/kg/injection, schedule: Q01DX001 (ip), vehicle: other 98 % of control | dose: 400.0 mg/kg/injection, schedule: Q01DX001 (ip), vehicle: other 102 % of control

C/C(=N/NC(=O)CC#N)c1ccccc1
inactive: dose: 100.0 mg/kg/injection, schedule: Q04DX002 (ip), vehicle: saline with Tween-80 101 % of control | dose: 200.0 mg/kg/injection, schedule: Q04DX002 (ip), vehicle: saline with Tween-80 104 % of control | dose: 400.0 mg/kg/injection, schedule: Q04DX002 (ip), vehicle: saline with Tween-80 95 % of control

CC(Cl)CN(CC(C)Cl)C(=O)OCC(NC(=O)OCc1ccccc1)C(=O)OCc1ccccc1 (stereo not given)
inactive: dose: 100.0 mg/kg/injection, schedule: Q01DX009 (ip), vehicle: Klucel (hydroxypropylcellulose) (HPC) 88 % of control | dose: 100.0 mg/kg/injection, schedule: Q04DX003 (ip), vehicle: Klucel (hydroxypropylcellulose) (HPC) 87 % of control | dose: 200.0 mg/kg/injection, schedule: Q04DX003 (ip), vehicle: Klucel (hydroxypropylcellulose) (HPC) 96 % of control | dose: 400.0 mg/kg/injection, schedule: Q01DX009 (ip), vehicle: Klucel (hydroxypropylcellulose) (HPC) 91 % of control | dose: 400.0 mg/kg/injection, schedule: Q04DX003 (ip), vehicle: Klucel (hydroxypropylcellulose) (HPC) 91 % of control
